Test results: EP0241232A1, “Isoxazolylethanol derivatives” (SHIONOGI SEIYAKU KABUSHIKI KAISHA, priority 1986, dated 1987)
Like-named read-outs stand apart in the source and are kept apart here.

Tests used:
Candida albicans KE-2 [1] = assay: Inhibition test against pseudomycelium formation of Candida albicans; assay type: cell-based; conditions: KE2, minimum effective concentration preventing typical pseudomycelium formation, Eagle-MEM + 20 % calf serum, 18 hours at 37 °C, read-out: Inhibitory Concentration of Pseudo-myselium Formation
Protocol: Candida albicans KE-2 was inoculated to Eagle-MEM medium (Nissan 2 made by Nissui Seiyaku, Ltd.) supplemented with 20 % calf serum so that its final inoculum of yeast cell might be 1 x 10^6 yeast cells per milliliter. The test compounds were added thereon in two fold dilution series. After incubation for 18 hours at 37 °C, the fungal growth in each drug concentration was smeared and fixed on a slide glass, and the presence or absence of the pseudomycelium formation was examined by a microscope following Giemsa staining. Minimum effective concentration was defined as the lowest concentration of the compound which prevented typical pseudomycelium formation.

Puccinia coronata = assay: Control by seed-soaking: crown rust in oats; assay type: in vivo
Protocol: (§1) The test compound was dissolved in 0.2 ml of acetone and suspended in demineralized distilled water containing a small amount of spreader, to a concentration of 500 ppm. The suspension was further diluted to one quarter dilution with demineralized distilled water (containing a small amount of spreader) to give a suspension in 125 ppm. All seeds of oats, wheat and cucumber were soaked in these suspensions at room temperature for an hour and then the seeds were air-dried.
(§2) The seeds as described above were sown in plastic pots (diameter : 9 cm). For rust and powdery mildews, the pots were kept in a glasshouse for 1 - 3 weeks until the seeds grew to young plants. The young oats (10 - 20 plants per pot) were inoculated by dusting with spores of Puccinia coronata, and the wheat (10 - 20 plants per pot) was also inoculated by spraying with spores of Erysiphe graminis f. sp. tritici, and the cucumber (1 plant per pot) was also inoculated by spraying with spore suspension of Sphaerotheca fuliginea. These inoculated plants were further kept in a glasshouse for 10 - 14 days until assessment. For damping-off, the treated seeds were sown in paper pots (diameter : 7.5 cm; depth : 6 cm) which contained soil infested with Rhizoctonia solani by mixing sterilized soil and pre-cultured fungus. Then the pots were kept in a humid glasshouse at 25 - 32 ^*C.
(§3) Damping-off was observed 15 days after sowing, and disease degree and control effect were obtained from the following equations. [formula] [formula] where diseased seedlings included damping-off and unemerged'seeds due to infection. For the foliar diseases, disease development was observed 10 - 14 days after inoculation of spores, and control effect was obtained by the following index.

Sphaerotheca fuliginea [2] = assay: Control by seed-soaking: powdery mildew in cucumber; assay type: in vivo
Protocol: as §1, §2, §3

[3] = test system: Erysiphe graminis f. sp. tritici; assay: Control by seed-soaking: powdery mildew in wheat; assay type: in vivo
Protocol: as §1, §2, §3

Candida albicans KE-2 [4] = assay: Therapeutic effect against experimental candidiasis in mice; assay type: in vivo; conditions: KE2, po, 120 h, mouse survival ratio on the 5th day after infection, Jcl-ICR female mouse, 50 mg/kg orally three times (0, 4, 24 hours)
Protocol: After Candida albicans KE-2 was incubated on Sabouraud's glucose agar at 28 °C for 48 hr., it was suspended in Sabouraud's glucose broth and the cells ([…]) were injected to a tail vein of Jcl-ICR female mouse (4 weeks age; weight : 18 - 20 g). A suspension of the test compound in 2 % gum arabic was orally administered three times, immediately after infection of the yeast ( 0 hour), after 4 hours and after 24 hours, as a dosage of 50 mg/kg. Non-treated group was used as control. Each eight mice per group was used in control group and treated group. All the mice in control group died within 48 hr. after infection. Therapeutic effect of the test compound was judged by mouse survival ratio on the 5th day after infection.

Rhizoctonia solani = assay: Control by seed-soaking: Rhizoctonia damping-off in cucumber; assay type: in vivo; conditions: 360 h, read-out: Control Index Rhizoctonia Damping-Off in Cucumber
Protocol: as §1, §2, §3

Sphaerotheca fuliginea [5] = assay: Control of cucumber powdery mildew by foliar spray; assay type: in vivo; conditions: observed 10 days after inoculation; for Control Index Preventive Effect: inoculation 24 hr. after application; for Control Index Curative Effect: inoculation 24 hr. before application
Protocol: The test compound was dissolved in a small amount of acetone and suspended in demineralized distilled water containing a spreader, to a concentration of 7.8 ppm and 2.0 ppm. Young cucumber plants (c.v. Tsukuba-Shiroibo) of 2-leaf stage grown in pots were sprayed sufficiently with the suspension.
Spores of Sphaerotheca fuliginea cultured in cucumber plants were collected and suspended in distilled water. Inoculation was made by spraying with the spore suspension to the test plant of 24 hr. after application of the test compound (preventive control) or 24 hr. before application (curative control).
Development of the disease was observed 10 days after inoculation and control index was obtained as described in Experiment 3.

[6] = seed-soaking, 125 ppm, observed 15 days after sowing, control effect by equation
[7] = seed-soaking, 500 ppm, observed 15 days after sowing, control effect by equation

Compound | minimal effective concentration (Candida albicans KE-2 [1]) [µg/mL] | responders at 50 mg/kg (Candida albicans KE-2 [4]) [%] | pest or weed control at 125 ppm (Rhizoctonia solani; [6]) [%] | pest or weed control at 500 ppm (Rhizoctonia solani; [7]) [%] | Control Index Preventive Effect (Sphaerotheca fuliginea [5]; foliar spray 2.0 ppm) | Control Index Curative Effect (Sphaerotheca fuliginea [5]; foliar spray 2.0 ppm) | Control Index Preventive Effect (Sphaerotheca fuliginea [5]; foliar spray 7.8 ppm) | Control Index Curative Effect (Sphaerotheca fuliginea [5]; foliar spray 7.8 ppm) | also measured
Cc1cc(C(O)(Cn2cncn2)c2ccc(Cl)cc2)no1 (stereo not shown) [Ia - 5] | 0.02 | 87.5 | 66 | 94 | 70 (Leaves covered with symptom between 16 % and 45 % area) | 97 (Leaves covered with symptom less than 3 % area) | 97 (Leaves covered with symptom less than 3 % area) | 100 | Control Index Crown Rust in Oats (Puccinia coronata; 125 ppm): 50 (Leaves covered with symptom between 46 % and 65 % area); Control Index Crown Rust in Oats (Puccinia coronata; 500 ppm): 97 (Leaves covered with symptom less than 3 % area); Control Index Powdery Mildew in Cucumber (Sphaerotheca fuliginea [2]; 125 ppm): 0 (Leaves covered with symptom more than 66 %); Control Index Powdery Mildew in Cucumber (Sphaerotheca fuliginea [2]; 500 ppm): 70 (Leaves covered with symptom between 16 % and 45 % area); Control Index Powdery Mildew in Wheat ([3]; 125 ppm): 70 (Leaves covered with symptom between 16 % and 45 % area); Control Index Powdery Mildew in Wheat ([3]; 500 ppm): 100
CC(C)(C)c1cc(C(O)(Cn2cncn2)c2ccc(F)cc2F)no1 (stereo not shown) [Ia - 12] | 0.31 |  |  |  |  |  |  |  | 
CCc1cc(C(O)(Cn2cncn2)c2ccc(F)cc2F)no1 (stereo not shown) [Ia - 10] | 0.08 | 50 |  |  |  |  |  |  | 
Cc1cc(C(O)(Cn2cncn2)c2ccc(Cl)cc2Cl)no1 (stereo not shown) [Ia - 7] | 0.02 |  | 92 | 94 | 90 (Leaves covered with symptom between 4 % and 15 % area) | 97 (Leaves covered with symptom less than 3 % area) | 100 | 100 | Control Index Crown Rust in Oats (Puccinia coronata; 125 ppm): 70 (Leaves covered with symptom between 16 % and 45 % area); Control Index Crown Rust in Oats (Puccinia coronata; 500 ppm): 100; Control Index Powdery Mildew in Wheat ([3]; 125 ppm): 70 (Leaves covered with symptom between 16 % and 45 % area); Control Index Powdery Mildew in Wheat ([3]; 500 ppm): 70 (Leaves covered with symptom between 16 % and 45 % area)
OC(Cn1cncn1)(c1ccc(F)cc1)c1ccon1 (stereo not drawn) [Ia - 1, 1-(4-Fluorophenyl)-1-(isoxazol-3-yl)-2-(1H-1,2,4-triazol-l-yl)ethanol] | 0.31 | 87.5 | 71 | 90 |  |  |  |  | Control Index Crown Rust in Oats (Puccinia coronata; 125 ppm): 50 (Leaves covered with symptom between 46 % and 65 % area); Control Index Crown Rust in Oats (Puccinia coronata; 500 ppm): 90 (Leaves covered with symptom between 4 % and 15 % area); Control Index Powdery Mildew in Cucumber (Sphaerotheca fuliginea [2]; 125 ppm): 0 (Leaves covered with symptom more than 66 %); Control Index Powdery Mildew in Cucumber (Sphaerotheca fuliginea [2]; 500 ppm): 70 (Leaves covered with symptom between 16 % and 45 % area); Control Index Powdery Mildew in Wheat ([3]; 125 ppm): 70 (Leaves covered with symptom between 16 % and 45 % area); Control Index Powdery Mildew in Wheat ([3]; 500 ppm): 100
Cc1cc(C(O)(Cn2cncn2)c2ccc(F)cc2F)no1 (stereo not shown) [Ia - 8] | 0.08 | 50 | 74 | 94 | 90 (Leaves covered with symptom between 4 % and 15 % area) | 90 (Leaves covered with symptom between 4 % and 15 % area) | 97 (Leaves covered with symptom less than 3 % area) | 100 | 
Cc1cc(C(O)(Cn2cncn2)c2ccccc2)no1 (stereo not shown) [Ia - 9] | 0.31 |  |  |  |  |  |  |  | 
CC(C)(C)C(=O)C(Oc1ccc(Cl)cc1)n1cncn1 (stereo not shown) [Triadi-mefon, reference compound] |  |  |  |  | 90 (Leaves covered with symptom between 4 % and 15 % area) | 90 (Leaves covered with symptom between 4 % and 15 % area) | 90 (Leaves covered with symptom between 4 % and 15 % area) | 90 (Leaves covered with symptom between 4 % and 15 % area) | Control Index Crown Rust in Oats (Puccinia coronata; 125 ppm): 50 (Leaves covered with symptom between 46 % and 65 % area); Control Index Crown Rust in Oats (Puccinia coronata; 500 ppm): 97 (Leaves covered with symptom less than 3 % area); Control Index Powdery Mildew in Cucumber (Sphaerotheca fuliginea [2]; 125 ppm): 0 (Leaves covered with symptom more than 66 %); Control Index Powdery Mildew in Cucumber (Sphaerotheca fuliginea [2]; 500 ppm): 70 (Leaves covered with symptom between 16 % and 45 % area); Control Index Powdery Mildew in Wheat ([3]; 125 ppm): 90 (Leaves covered with symptom between 4 % and 15 % area); Control Index Powdery Mildew in Wheat ([3]; 500 ppm): 100; pest or weed control at 125 ppm (Rhizoctonia solani): 34%; pest or weed control at 500 ppm (Rhizoctonia solani): 49%
Cc1cc(C(O)(Cn2ccnc2)c2ccc(F)cc2)no1 (stereo not shown) [Ia - 13, 1-(4-Fluorophenyl)-1-(5-methylisoxazol-3-yl)-2-(1H-imidazol-1-yl)ethanol] | 0.63 |  |  |  |  |  |  |  | 
Cc1onc(C(O)(Cn2cncn2)c2ccccc2)c1Cl (stereo not shown) [Ib - 3] | 1.25 |  |  |  |  |  |  |  | 
Cc1onc(C(O)(Cn2cncn2)c2ccc(Cl)cc2)c1Cl (stereo not shown) [Ib - 1, 1-(4-Chlorophenyl)-1-(5-methyl-4-chloroisoxazol-3-yl)-2-(1H-1,2,4-triazol-1-yl)ethanol] | 0.31 |  | 35 | 88 | 70 (Leaves covered with symptom between 16 % and 45 % area) | 97 (Leaves covered with symptom less than 3 % area) | 97 (Leaves covered with symptom less than 3 % area) | 100 | 
CCCCc1cc(C(O)(Cn2cncn2)c2ccc(F)cc2F)no1 (stereo not shown) [Ia - 11] | 0.04 | 50 |  |  |  |  |  |  | 
Cc1onc(C(O)(Cn2cncn2)c2ccc(F)cc2)c1Cl (stereo not shown) [Ib - 2] | 1.25 |  | 60 | 85 |  |  |  |  | 
Cc1cc(C(O)(Cn2cncn2)c2ccc(F)cc2)no1 (stereo not shown) [Ia - 6] | 0.16 |  | 54 | 85 |  |  |  |  | 
